In US4375475A, “Substituted pyranone inhibitors of cholesterol synthesis” (Merck & Co., Inc., priority 1981, dated 1983):
Structures can show the parent of a compound that is named as a salt. Where two headings read alike, the source gives them in different places.

Key:
[1] = target: T1, 3-hydroxy-3-methylglutaryl-coenzyme A reductase (Rattus norvegicus, UniProt P51639); assay: method A: in vitro method of H. J. Knauss et al., inhibition of 50% of the enzymatic activity; format: biochemical; conditions: compounds tested as the sodium salts of their corresponding hydroxy acid forms
T1 construct: from tissue
T1 sequence (P51639 1-887): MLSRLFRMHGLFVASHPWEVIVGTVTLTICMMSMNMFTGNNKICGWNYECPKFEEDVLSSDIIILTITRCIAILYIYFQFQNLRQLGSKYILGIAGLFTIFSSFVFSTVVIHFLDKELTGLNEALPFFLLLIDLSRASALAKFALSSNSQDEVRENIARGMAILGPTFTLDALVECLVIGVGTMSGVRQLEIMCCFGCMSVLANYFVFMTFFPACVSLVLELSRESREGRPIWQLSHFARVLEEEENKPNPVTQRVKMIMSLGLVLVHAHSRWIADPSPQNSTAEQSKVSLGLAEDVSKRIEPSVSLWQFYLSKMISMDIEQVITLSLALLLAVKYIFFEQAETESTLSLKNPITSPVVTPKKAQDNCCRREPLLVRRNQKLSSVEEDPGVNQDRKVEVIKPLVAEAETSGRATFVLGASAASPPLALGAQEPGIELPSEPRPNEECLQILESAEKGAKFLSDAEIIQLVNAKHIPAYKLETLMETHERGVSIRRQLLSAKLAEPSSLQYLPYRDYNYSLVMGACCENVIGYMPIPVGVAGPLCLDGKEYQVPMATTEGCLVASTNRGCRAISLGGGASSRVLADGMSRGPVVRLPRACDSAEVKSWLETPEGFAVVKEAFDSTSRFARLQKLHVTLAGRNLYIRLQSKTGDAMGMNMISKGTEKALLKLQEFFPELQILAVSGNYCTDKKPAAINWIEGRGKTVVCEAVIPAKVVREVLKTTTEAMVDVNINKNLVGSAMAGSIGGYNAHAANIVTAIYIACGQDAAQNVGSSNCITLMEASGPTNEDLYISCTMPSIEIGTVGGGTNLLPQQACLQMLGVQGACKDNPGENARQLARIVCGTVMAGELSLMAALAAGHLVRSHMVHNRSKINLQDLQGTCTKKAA
Excerpt: The inhibitory activity of these compounds for the biosynthesis of cholesterol has been measured by two methods. The experimental method A was the in vitro method of H. J. Knauss, et al., J. Biol. Chem., 234, 2835 (1959) and the activity was expressed as the molar concentration IC50 (M) necessary for the inhibition of 50% of the enzymatic activity. The experimental method B was the method of A. A. Kandutsch, et al., J. Biol. Chem., 248, 8403 (1973) for measuring the quantity of ^14 C-cholesterol biosynthesis from acetic acid-^14 C in mouse L cells. The activity is expressed for inhibition of 50% of the biosynthesis of cholesterol.

[2] = target: T1, 3-hydroxy-3-methylglutaryl-coenzyme A reductase; conditions: method A; values of Belgian Pat. No. 867,421; read-out: IC50 as reported in the cited Belgian patent; cited from earlier work
mouse L cells = conditions: method B, values of Belgian Pat. No. 867,421, read-out: IC50 (inhibition of 50% of the biosynthesis of cholesterol) as reported in the cited Belgian patent; cited from earlier work

IC50 [1]	SMILES	IC50 [2]	IC50 (mouse L cells)
7 nM	Cc1cc(C)c(C=CC2CC(O)CC(=O)O2)c(-c2ccc(F)c(C)c2)c1 (stereo not drawn) [6-[2-(4'-fluoro-3,3',5-trimethyl[1,1'-biphenyl]-2-yl)ethenyl]-3,4,5,6-tetrahydro-4-hydroxy-2H-pyran-2-one]		
~13 nM	O=C(O)C[C@H](O)C[C@H](O)/C=C/c1c(Cl)cc(Cl)cc1-c1ccc(F)cc1 (relative stereo) [Example 43, (+)-(E)-(3R*,5S*)-7-(3,5-dichloro-4'-fluoro[1,1'-biphenyl]-2-yl)-3,5-dihydroxy-6-heptenoic acid, ammonium salt]		
	CC[C@H](C)C(=O)O[C@H]1CCC=C2C=C[C@H](C)[C@H](CC[C@@H]3C[C@@H](O)CC(=O)O3)[C@H]21 [compactin]	~8 nM	~8 nM
68 nM	O=C1C[C@@H](O)C[C@H](CCc2c(Cl)cc(Cl)cc2OCc2ccccc2)O1 [Example 14, (+)-Trans-6-[2-(2,4-dichloro-6-phenylmethoxyphenyl)ethyl]-3,4,5,6-tetrahydro-4-hydroxy-2H-pyran-2-one]		
15 nM	Cc1cc(C)cc(-c2cc(C)cc(C)c2C=CC2CC(O)CC(=O)O2)c1 (stereo not drawn) [6-[2-(3,3',5,5'-tetramethyl-[1,1'-biphenyl]-2-yl)ethenyl]-3,4,5,6-tetrahydro-4-hydroxy-2H-pyran-2-one]		
